Reference: US8507469B2, “Azetidin compounds suitable for treating disorders that respond to modulation of the serotonin 5-HT6 receptor” (Abbott GmbH & Co. KG, priority 2007, dated 2013)
pKd, pKi: −log10 of the molar value. Counter-ions that a name gives are not always drawn.

Key:
[1] = biological target: histamine H1 receptor (Homo sapiens, UniProt P35367); assay: H1 receptor binding assay (displacement of [3H]-pyrilamine); conditions: CHO-K1 membranes, 1 nM [3H]-pyrilamine
Experimental: (§1) Cells from stable clonal cell lines expressing the corresponding receptor (5-HT6, 1-adrenergic, dopamine D2 or histamine H1 receptors) were washed with PBS (w/o Ca^++, Mg^++) and harvested in PBS with 0.02% EDTA. The cells were collected by centrifugation at 500 g for 10 min. at 4° C., washed with PBS and centrifuged (500 g, 10 min. 4° C.). The pellets were stored at −80° C. until use. For membrane preparation, the thawed cell pellet was resuspended in ice-cold sucrose buffer (0.25 M sucrose, 10 mM Hepes (pH 7.4), 1 mM Phenylmethylsulfonyl fluoride (PMSF) in DMSO, […] Pepstatin-A, 3 mM EDTA, 0.025% Bacitracin) and homogenized with a Branson Sonifier W-250 (Settings: Timer 4; Output Control 3; Duty Cycle constant; 2 to 3 cycles). Cell disruption was checked with the aid of a microscope. Remaining unbroken cells were pelleted at 1.000 g for 10 min. at 4° C. The sucrose buffer supernatant was then centrifuged at 60.000 g for 1 h at 4° C. (Beckman Ultrazentrifuge XL 80). The pellet was resuspended in 30 ml ice-cold Tris buffer (20 mM TRIS (pH 7.4), […] Pepstatin A, 0.1 mM PMSF, 3 mM EDTA) by pipetting through a 10 ml serological pipet and centrifuged for 1 h at 4° C. at 60.000 g. A final resuspension was performed in a small volume of ice-cold Tris buffer (see above) by pressing through a serological pipet followed by ultrasonic treatment with a Branson Sonifier W-250 (Settings: Timer 1; Output Control 3; Duty Cycle constant; 1 cycle). Protein concentration was determined (BCA-Kit; Pierce) and aliquots stored at −80° C. or in liquid nitrogen for long-term storage.
(§2) All receptor binding experiments were carried out in the corresponding assay buffer in a total volume of 200 μl in the presence of various concentrations of test compound (10^−5 M to 10^−9 M, tenfold serial dilution, duplicate determinations). The assays were terminated by filtration on polyethylenimine (PEI 0.1% or 0.3%) presoaked Packard Unifilter Plates (GF/C or GF/B) with a Tomtec MachIII U 96well-plate harvester. After the plates had been dried for 2 h at 55° C. in a drying chamber scintillation cocktail (BetaPlate Scint; PerkinElmer) was added. Radioactivity was measured in a Microbeta Trilux two hours after the addition of the scintillation mixture. Data derived from liquid scintillation counting were analysed by iterative non-linear regression analysis with the use of the Statistical Analysis System (SAS): a program similar to “LIGAND” as described by Munson and Rodbard (Analytical Biochemistry 107, 220-239 (1980).
CHO-K1 cells stably expressing the histamine H1 receptor (Euroscreen-ES-390-C, NCBI Reference Sequence NM_000861) were cultured in RPMI1640 medium supplemented with 25 mM HEPES, 10% fetal calf serum and 1-2 mM glutamine. The membrane preparation was performed as described in section 1. […] On the day of the assay, the membranes were thawed, diluted in assay buffer (50 mM Na2HPO4, 50 mM KH2PO4, pH 7.4) to a concentration of 6 μg protein/assay and homogenized by gentle vortexing. […] The binding reaction was carried out for 50 minutes at room temperature and terminated by filtration on Packard Unifilter GF/C (0.3% PEI) plates, followed by 2 wash cycles with ice-cold assay buffer.
(§3) Data derived from liquid scintillation counting were analyzed by iterative non-linear regression analysis with the use of the Statistical Analysis System (SAS): a program similar to “LIGAND” as described by Munson and Rodbard (Anal. Biochem. 1980, 107, 220-239). Fitting was performed according to formulae described by Feldman (Anal. Biochem. 1972, 48, 317-338). IC50, nH and Ki values were expressed as geometrical mean.

[2] = biological target: T1, h-5-HT6 receptor (Homo sapiens, UniProt P50406); assay: 5-HT6 receptor binding assay (displacement of [3H]-LSD); conditions: HEK293 membranes, 1 nM [3H]-LSD
T1 construct: expressed in transfected cells
Experimental: as §1, §2
HEK293 cells stably expressing the h-5-HT6 receptor (NCBI Reference Sequence XM 001435) were cultured in RPMI1640 medium supplemented with 25 mM HEPES, 10% fetal calf serum and 1-2 mM glutamine. The membrane preparation was performed as described in section 1. […] Non-specific binding was defined with 1 μM methiothepin. The binding reaction was carried out for 3.5 h at room temperature. During the incubation, the plates were shaken on a plate shaker at 100 rpm and terminated by filtration on Packard Unifilter GF/C (0.1% PEI) plates, followed by 2 wash cycles with ice-cold 50 mM Tris-HCl, 5 mM CaCl2.
as §3

[3] = biological target: T2, dopamine D2 receptor (Homo sapiens, UniProt P14416); assay: Dopamine D2 receptor binding assay (displacement of [125I]-iodospiperone); conditions: for pKi: HEK293 membranes, 0.01 nM [125I]-iodospiperone
T2 construct: expressed in transfected cells
Experimental: as §1, §2
HEK293 cells stably expressing the dopamine D2 receptor (NCBI Reference Sequence NM_000795) were cultured in RPMI1640 medium supplemented with 25 mM HEPES, 10% fetal calf serum and 1-2 mM glutamine. The membrane preparation was performed as described in section 1. […] On the day of the assay, the membranes were thawed, diluted in assay buffer (50 mM Tris-HCl, 120 mM NaCl, 5 mM MgCl2, 5 mM KCl, 1.5 mM CaCl2, pH 7.4) to a concentration of 15 μg protein/assay and homogenized by gentle vortexing. For inhibition studies, 0.01 nM [^125I]-iodospiperone (PerkinElmer Life Sciences, NEX284) was incubated in the presence of various concentrations of test compound in assay buffer. Non-specific binding was defined with 1 μM haloperidol. The binding reaction was carried out for 1 h at room temperature and terminated by filtration on Packard Unifilter GF/B (0.1% PEI) plates, followed by 6 wash cycles with an ice-cold 7% polyethylenglycol solution.
as §3

[4] = biological target: T3, α1-adrenergic receptor (Homo sapiens, UniProt P35348); assay: α1-adrenergic receptor binding assay (displacement of [3H]-prazosine); conditions: CHO-K1 membranes, 0.1 nM [3H]-prazosine
T3 construct: expressed in transfected cells
Experimental: as §1, §2
CHO-K1 cells stably expressing the 1-adrenergic receptor (NCBI Reference Sequence NM_033303) were cultured in RPMI1640 medium supplemented with 25 mM HEPES, 10% fetal calf serum and 1-2 mM glutamine. The membrane preparation was performed as described in section 1. […] On the day of the assay, the membranes were thawed, diluted in assay buffer (50 mM Tris-HCl, pH 7.4) to a concentration of 4 μg protein/assay and homogenized by gentle vortexing. […] Non-specific binding was defined with 1 μM phentolamine. The binding reaction was carried out for 1 h at room temperature and terminated by filtration on Packard Unifilter GF/C (0.1% PEI) plates, followed by 3 wash cycles with ice-cold assay buffer.
as §3

T1 sequence (P50406 whole entry): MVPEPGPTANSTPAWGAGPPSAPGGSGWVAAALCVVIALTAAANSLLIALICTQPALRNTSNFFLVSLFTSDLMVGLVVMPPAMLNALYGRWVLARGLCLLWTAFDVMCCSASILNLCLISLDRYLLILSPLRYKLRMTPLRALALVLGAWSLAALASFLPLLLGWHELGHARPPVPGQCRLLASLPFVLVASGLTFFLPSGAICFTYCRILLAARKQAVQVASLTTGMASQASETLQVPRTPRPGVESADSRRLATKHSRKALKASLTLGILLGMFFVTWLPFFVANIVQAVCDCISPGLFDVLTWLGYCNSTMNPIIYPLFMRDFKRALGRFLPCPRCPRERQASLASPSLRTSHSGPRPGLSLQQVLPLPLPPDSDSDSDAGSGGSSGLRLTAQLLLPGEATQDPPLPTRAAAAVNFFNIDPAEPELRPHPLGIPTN
Chain of histamine H1 receptor (P35367 whole entry): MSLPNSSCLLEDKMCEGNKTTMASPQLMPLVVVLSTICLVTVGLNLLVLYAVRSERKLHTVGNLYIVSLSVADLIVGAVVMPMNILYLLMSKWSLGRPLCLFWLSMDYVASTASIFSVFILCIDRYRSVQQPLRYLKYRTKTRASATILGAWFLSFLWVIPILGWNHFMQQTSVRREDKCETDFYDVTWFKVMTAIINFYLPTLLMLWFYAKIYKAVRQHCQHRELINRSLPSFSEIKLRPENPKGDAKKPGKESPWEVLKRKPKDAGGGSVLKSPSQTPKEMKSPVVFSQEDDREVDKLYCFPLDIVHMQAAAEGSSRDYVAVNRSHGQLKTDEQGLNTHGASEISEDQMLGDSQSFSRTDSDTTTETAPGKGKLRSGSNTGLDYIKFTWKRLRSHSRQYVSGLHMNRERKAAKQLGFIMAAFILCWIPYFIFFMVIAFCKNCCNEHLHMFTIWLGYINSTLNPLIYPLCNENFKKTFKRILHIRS
T2 sequence (P14416 whole entry): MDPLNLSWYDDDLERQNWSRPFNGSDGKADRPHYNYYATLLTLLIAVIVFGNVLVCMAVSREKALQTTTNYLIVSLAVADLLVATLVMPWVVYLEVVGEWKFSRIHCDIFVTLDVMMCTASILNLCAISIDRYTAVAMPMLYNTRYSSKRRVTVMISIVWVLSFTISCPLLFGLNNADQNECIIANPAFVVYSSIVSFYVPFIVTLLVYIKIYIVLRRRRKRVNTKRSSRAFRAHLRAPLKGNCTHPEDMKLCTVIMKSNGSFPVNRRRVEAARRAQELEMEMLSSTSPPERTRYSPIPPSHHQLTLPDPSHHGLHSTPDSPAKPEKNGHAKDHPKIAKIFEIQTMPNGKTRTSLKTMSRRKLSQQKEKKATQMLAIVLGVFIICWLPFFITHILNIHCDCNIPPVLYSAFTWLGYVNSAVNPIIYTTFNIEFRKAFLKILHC
T3 sequence (P35348 1-475 isoform P35348-2): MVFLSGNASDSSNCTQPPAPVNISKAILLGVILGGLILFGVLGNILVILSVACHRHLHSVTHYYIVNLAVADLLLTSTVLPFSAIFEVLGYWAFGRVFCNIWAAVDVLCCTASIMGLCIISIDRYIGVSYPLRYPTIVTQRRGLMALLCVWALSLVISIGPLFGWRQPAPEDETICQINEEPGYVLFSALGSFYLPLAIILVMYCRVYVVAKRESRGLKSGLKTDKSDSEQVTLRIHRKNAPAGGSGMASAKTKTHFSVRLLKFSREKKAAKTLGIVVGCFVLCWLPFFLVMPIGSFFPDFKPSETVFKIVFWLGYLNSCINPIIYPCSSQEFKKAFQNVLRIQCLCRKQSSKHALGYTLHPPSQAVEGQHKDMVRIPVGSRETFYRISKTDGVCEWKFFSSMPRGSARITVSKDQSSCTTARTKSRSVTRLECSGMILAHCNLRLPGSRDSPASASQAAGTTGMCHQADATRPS

Row | pKi [1] | pKi [2] | pKi [3] | pKi [4] | pKd ([3]; saturation binding experiments, HEK293 D2 membranes, read-out: KD of radioligand) | Molecule
1 | < 6.00 | > 8.30 | < 5.00 | < 6.00 |  | O=S(=O)(c1ccccc1OC(F)(F)F)n1ccc2cc(C3CNC3)ccc21 [compound 23, 5-Azetidin-3-yl-1-(2-trifluoromethoxybenzenesulfonyl)-1H-indole]
2 | < 6.00 | > 8.30 | < 6.00 | < 6.60 |  | CCCN1CC(c2ccc3c(ccn3S(=O)(=O)c3cccc(C(F)(F)F)c3)c2)C1 [compound 25, 5-(1-propyl-azetidin-3-yl)-1-(3-trifluoromethylbenzenesulfonyl)-1H-indole, hydrochloride]
3 | < 6.00 | > 8.30 | < 6.00 | < 6.60 |  | CCCN1CC(c2ccc3c(ccn3S(=O)(=O)c3cccc(OC(F)(F)F)c3)c2)C1 [compound 26, 5-(1-Propylazetidin-3-yl)-1-(3-trifluoromethoxybenzenesulfonyl)-1H-indole, hydrochloride]
4 | < 6.00 | > 8.30 | < 6.00 | < 6.60 |  | CCCN1CC(c2ccc3c(ccn3S(=O)(=O)c3cccc(OC(F)F)c3)c2)C1 [compound 27, 5-(1-Propylazetidin-3-yl)-1-(3-difluoromethoxybenzenesulfonyl)-1H-indole, hydrochloride]
5 |  | > 8.00 | < 6.00 |  |  | CCN1CC(c2ccc3c(ccn3S(=O)(=O)c3ccccc3)c2)C1 [compound 28, 5-(1-Ethylazetidin-3-yl)-1-benzenesulfonyl-1H-indole, hydrochloride]
6 |  | > 8.00 | < 6.00 |  |  | CN1CC(c2ccc3c(ccn3S(=O)(=O)c3ccccc3)c2)C1 [compound 29, 5-(1-Methylazetidin-3-yl)-1-benzenesulfonyl-1H-indole, hydrochloride]
7 | < 6.00 | > 8.30 | < 6.00 | < 6.00 |  | O=S(=O)(c1cccc(C(F)(F)F)c1)N1CCc2cc(C3CNC3)ccc21 [compound 30, 5-Azetidin-3-yl-1-(3-trifluoromethyl-benzenesulfonyl)-2,3-dihydro-1H-indole, hydrochloride]
8 | < 5.00 | > 8.00 | < 5.00 | < 5.00 |  | O=S(=O)(c1ccccc1)n1ccc2cc(C3CNC3)cnc21 [compound 46, 5-Azetidin-3-yl-1-benzenesulfonyl-1H-pyrrolo[2,3-b]pyridine, formic acid salt]

Second part, the molecule before the results:

Row | Molecule | pKi [1] | pKi [2] | pKi [3] | pKi [4] | pKd ([3]; saturation binding experiments, HEK293 D2 membranes, read-out: KD of radioligand)
9 | O=S(=O)(c1ccccc1)n1ccc2cc(C3CNC3)ccc21 [compound 2, 5-azetidin-3-yl-1-benzenesulfonyl-1H-indole, hydrochloride] | < 5.00 | > 8.30 | < 5.00 | < 6.00 | 
10 | O=S(=O)(c1ccc(-c2cnco2)cc1)n1ccc2cc(C3CNC3)ccc21 [compound 3, 5-azetidin-3-yl-1-(4-oxazol-5-yl-benzenesulfonyl)-1H-indole, hydrochloride] |  | > 6.60 | < 6.00 |  | 
11 | CCCN1CC(c2ccc3c(ccn3S(=O)(=O)c3ccc(OC(F)F)cc3)c2)C1 [compound 4, 1-(4-Difluoromethoxy-benzenesulfonyl)-5-(1-propyl-azetidin-3-yl)-1H-indole, hydrochloride] |  | > 7.30 | < 6.00 | < 6.60 | 
12 | CCCN1CC(c2ccc3c(ccn3S(=O)(=O)c3ccccc3)c2)C1 [compound 5, 1-benzenesulfonyl-5-(1-propylazetidin-3-yl)-1H-indole, hydrochloride] | < 6.00 | > 8.30 | < 6.00 | < 6.60 | 
13 | CCCN1CC(c2ccc3c(ccn3S(=O)(=O)c3ccc(-c4cnco4)cc3)c2)C1 [compound 6, 1-(4-oxazol-5-yl-benzenesulfonyl)-5-(1-propylazetidin-3-yl)-1H-indole, hydrochloride] |  | > 6.60 | < 6.00 |  | 
14 | O=S(=O)(c1ccccc1)N1CCc2cc(C3CNC3)ccc21 [compound 7, 5-azetidin-3-yl-1-benzenesulfonyl-2,3-dihydro-1H-indole, hydrochloride] | < 6.00 | > 8.30 | < 5.00 | < 6.00 | 
15 | O=S(=O)(c1ccc(-c2cnco2)cc1)N1CCc2cc(C3CNC3)ccc21 [compound 8, 5-azetidin-3-yl-1-(4-oxazol-5-yl-benzenesulfonyl)-2,3-dihydro-1H-indole] |  | > 6.60 | < 5.00 |  | 
16 | O=S(=O)(c1cccc(C(F)(F)F)c1)n1ccc2cc(C3CNC3)ccc21 [compound 19, 5-azetidin-3-yl-1-(3-trifluoromethyl-benzenesulfonyl)-1H-indole, hydrochloride] | < 5.00 | > 8.30 | < 5.00 | < 6.00 | 
17 | O=S(=O)(c1cccc(OC(F)(F)F)c1)n1ccc2cc(C3CNC3)ccc21 [compound 20, 5-Azetidin-3-yl-1-(3-trifluoromethoxybenzenesulfonyl)-1H-indole, hydrochloride] | < 5.00 | > 8.30 | < 6.00 | < 6.00 | 
18 | O=S(=O)(c1cccc(OC(F)F)c1)n1ccc2cc(C3CNC3)ccc21 [compound 21, 5-Azetidin-3-yl-1-(3-difluoromethoxybenzenesulfonyl)-1H-indole, hydrochloride] | < 5.00 | > 8.30 | < 6.00 | < 6.00 | 
19 | O=S(=O)(c1cccnc1)n1cc(C2CNC2)c2ccccc21 [compound 24, Azetidin-3-yl-1-(pyridine-3-sulfonyl)-1H-indole, hydrochloride] |  | > 8.00 | < 5.00 |  | 
20 | iodospiperone [[^125I]-iodospiperone, reference compound] |  |  |  |  | 9.66
